Assay results from patent US20260042731A1, “(2,4-DICHLOROPHENOXY)ACETIC ACID ANALOGS” (CORTEVA AGRISCIENCE LLC, priority 2022, published 2026).
Read-outs that look alike come from different tables or passages of the source.

Key:
[1] = tested on: Abutilon theophrasti (ABUTH), velvetleaf; experiment: Postemergence herbicide evaluation, growth of Abutilon theophrasti (ABUTH); assay type: in vivo; details: Abutilon theophrasti, post-emergence, percent reduction in plant size vs untreated control, read-out: AVE. ABUTH; for pest or weed control at 280 g/ha: 280 g ae/ha; for pest or weed control at 560 g/ha: 560 g ae/ha
[2] = tested on: glyphosate resistant Conyza canadensis (L.) (ERICA), horseweed; experiment: Postemergence herbicide evaluation, growth of Conyza canadensis (ERICA); assay type: in vivo; details: Erigeron canadensis, post-emergence, percent reduction in plant size vs untreated control, read-out: Ave. ERICA; for pest or weed control at 280 g/ha: 280 g ae/ha; for pest or weed control at 560 g/ha: 560 g ae/ha
[3] = tested on: weeds ABUTH, AMATA, AMBEL, CHEAL, ERICA; experiment: Postemergence herbicide evaluation, overall average % weed control across ABUTH, AMATA, AMBEL, CHEAL and ERICA; assay type: in vivo; details: post-emergence, average over five weeds, read-out: Overall Ave % Weed Control; for pest or weed control at 280 g/ha: 280 g ae/ha; for pest or weed control at 560 g/ha: 560 g ae/ha
[4] = Volatility of compounds measured by thermogravimetric analysis (TGA); assay type: physicochemical
[5] = tested on: Amaranthus rudis (AMATA), tall water hemp; experiment: Postemergence herbicide evaluation, growth of Amaranthus rudis (AMATA); assay type: in vivo; details: Amaranthus tuberculatus, post-emergence, percent reduction in plant size vs untreated control, read-out: Ave. AMATA; for pest or weed control at 280 g/ha: 280 g ae/ha; for pest or weed control at 560 g/ha: 560 g ae/ha
[6] = tested on: Chenopodium album (CHEAL), common lambsquarters; experiment: Postemergence herbicide evaluation, growth of Chenopodium album (CHEAL); assay type: in vivo; details: Chenopodium album, post-emergence, percent reduction in plant size vs untreated control, read-out: Ave. CHEAL; for pest or weed control at 280 g/ha: 280 g ae/ha; for pest or weed control at 560 g/ha: 560 g ae/ha
[7] = tested on: Ambrosia artemisiifolia (AMBEL), common ragweed; experiment: Postemergence herbicide evaluation, growth of Ambrosia artemisiifolia (AMBEL); assay type: in vivo; details: Ambrosia artemisiifolia, post-emergence, percent reduction in plant size vs untreated control, read-out: AVE. AMBEL; for pest or weed control at 280 g/ha: 280 g ae/ha; for pest or weed control at 560 g/ha: 560 g ae/ha

Structure (SMILES) | pest or weed control at 280 g/ha ([1]; 168 h, 7 DAA) | pest or weed control at 560 g/ha ([1]; 168 h, 7 DAA) | pest or weed control at 560 g/ha ([1]; 336 h, 14 DAA) | pest or weed control at 560 g/ha ([1]; 504 h, 21 DAA) | pest or weed control at 560 g/ha ([2]; 168 h, 7 DAA) | pest or weed control at 560 g/ha ([2]; 336 h, 14 DAA) | pest or weed control at 560 g/ha ([2]; 504 h, 21 DAA) | pest or weed control at 560 g/ha ([3]; 168 h, 7 DAA) | pest or weed control at 560 g/ha ([3]; 336 h, 14 DAA) | pest or weed control at 560 g/ha ([3]; 504 h, 21 DAA) | TGA Data (rate of weight loss, volatility) [4] | pest or weed control at 560 g/ha ([5]; 168 h, 7 DAA) | pest or weed control at 560 g/ha ([5]; 336 h, 14 DAA) | pest or weed control at 560 g/ha ([5]; 504 h, 21 DAA) | pest or weed control at 560 g/ha ([6]; 168 h, 7 DAA) | pest or weed control at 560 g/ha ([6]; 336 h, 14 DAA) | pest or weed control at 560 g/ha ([6]; 504 h, 21 DAA) | pest or weed control at 560 g/ha ([7]; 168 h, 7 DAA) | pest or weed control at 560 g/ha ([7]; 336 h, 14 DAA) | pest or weed control at 560 g/ha ([7]; 504 h, 21 DAA) | other results
O=C(COc1ccc(Cl)cc1Cl)NOCc1ccc(Cl)cc1 [Compound D16] | 65% | 27.5% | 37.5% | 45% | 80% | 97.5% | 99% | 67.5% | 81.5% | 87.3% | 0.03658 µg/min | 75% | 92.5% | 92.5% | 82.5% | 92.5% | 100% | 72.5% | 87.5% | 100% | pest or weed control at 280 g/ha ([1]; 336 h, 14 DAA): 72.5%; pest or weed control at 280 g/ha ([1]; 504 h, 21 DAA): 80%; pest or weed control at 280 g/ha ([2]; 168 h, 7 DAA): 72.5%; pest or weed control at 280 g/ha ([2]; 336 h, 14 DAA): 92.5%; pest or weed control at 280 g/ha ([2]; 504 h, 21 DAA): 100%; pest or weed control at 280 g/ha ([3]; 168 h, 7 DAA): 74%; pest or weed control at 280 g/ha ([3]; 336 h, 14 DAA): 85.3%; pest or weed control at 280 g/ha ([3]; 504 h, 21 DAA): 92.5%; pest or weed control at 280 g/ha ([5]; 168 h, 7 DAA): 75%; pest or weed control at 280 g/ha ([5]; 336 h, 14 DAA): 92.5%; pest or weed control at 280 g/ha ([5]; 504 h, 21 DAA): 85%; pest or weed control at 280 g/ha ([6]; 168 h, 7 DAA): 80%; pest or weed control at 280 g/ha ([6]; 336 h, 14 DAA): 94%; pest or weed control at 280 g/ha ([6]; 504 h, 21 DAA): 97.5%; pest or weed control at 280 g/ha ([7]; 168 h, 7 DAA): 77.5%; pest or weed control at 280 g/ha ([7]; 336 h, 14 DAA): 75%; pest or weed control at 280 g/ha ([7]; 504 h, 21 DAA): 100%
O=C(COc1ccc(Cl)cc1Cl)NOCc1c(F)cccc1Cl [Compound D17] | – | 47.5% | 62.5% | 80% | 80% | 100% | 100% | 73.8% | 89.8% | 94.5% | 0.0287 µg/min | 86.5% | 96% | 92.5% | 77.5% | 98% | 100% | 77.5% | 92.5% | 100% | –
O=C(COc1ccc(Cl)cc1Cl)NOCCc1ccccc1 [Compound D18] | 67.5% | 72.5% | 96.5% | 99.5% | 85% | 98% | 98% | 83.9% | 95.6% | 98.5% | 0.1777 µg/min | 96% | 96% | 95% | 75% | 92.5% | 100% | 91% | 95% | 100% | pest or weed control at 280 g/ha ([1]; 336 h, 14 DAA): 85%; pest or weed control at 280 g/ha ([1]; 504 h, 21 DAA): 100%; pest or weed control at 280 g/ha ([2]; 168 h, 7 DAA): 85%; pest or weed control at 280 g/ha ([2]; 336 h, 14 DAA): 99%; pest or weed control at 280 g/ha ([2]; 504 h, 21 DAA): 100%; pest or weed control at 280 g/ha ([3]; 168 h, 7 DAA): 75%; pest or weed control at 280 g/ha ([3]; 336 h, 14 DAA): 89.8%; pest or weed control at 280 g/ha ([3]; 504 h, 21 DAA): 93.5%; pest or weed control at 280 g/ha ([5]; 168 h, 7 DAA): 72.5%; pest or weed control at 280 g/ha ([5]; 336 h, 14 DAA): 87.5%; pest or weed control at 280 g/ha ([5]; 504 h, 21 DAA): 75%; pest or weed control at 280 g/ha ([6]; 168 h, 7 DAA): 75%; pest or weed control at 280 g/ha ([6]; 336 h, 14 DAA): 97.5%; pest or weed control at 280 g/ha ([6]; 504 h, 21 DAA): 92.5%; pest or weed control at 280 g/ha ([7]; 168 h, 7 DAA): 75%; pest or weed control at 280 g/ha ([7]; 336 h, 14 DAA): 80%; pest or weed control at 280 g/ha ([7]; 504 h, 21 DAA): 100%
CONC(=O)COc1ccc(Cl)cc1Cl [Compound D19] | 75% | 87.5% | 98% | 100% | 80% | 100% | 99.5% | 87.2% | 94.3% | 94.5% | 0.61 µg/min | 90% | 93.5% | 75% | 85% | 95% | 98% | 93.5% | 85% | 100% | pest or weed control at 280 g/ha ([1]; 336 h, 14 DAA): 89%; pest or weed control at 280 g/ha ([1]; 504 h, 21 DAA): 98.5%; pest or weed control at 280 g/ha ([2]; 168 h, 7 DAA): 82.5%; pest or weed control at 280 g/ha ([2]; 336 h, 14 DAA): 98%; pest or weed control at 280 g/ha ([2]; 504 h, 21 DAA): 98.5%; pest or weed control at 280 g/ha ([3]; 168 h, 7 DAA): 79%; pest or weed control at 280 g/ha ([3]; 336 h, 14 DAA): 90.7%; pest or weed control at 280 g/ha ([3]; 504 h, 21 DAA): 93.2%; pest or weed control at 280 g/ha ([5]; 168 h, 7 DAA): 77.5%; pest or weed control at 280 g/ha ([5]; 336 h, 14 DAA): 90%; pest or weed control at 280 g/ha ([5]; 504 h, 21 DAA): 72.5%; pest or weed control at 280 g/ha ([6]; 168 h, 7 DAA): 77.5%; pest or weed control at 280 g/ha ([6]; 336 h, 14 DAA): 94%; pest or weed control at 280 g/ha ([6]; 504 h, 21 DAA): 96.5%; pest or weed control at 280 g/ha ([7]; 168 h, 7 DAA): 82.5%; pest or weed control at 280 g/ha ([7]; 336 h, 14 DAA): 82.5%; pest or weed control at 280 g/ha ([7]; 504 h, 21 DAA): 100%
